# Reference: ChEMBL document CHEMBL1201862, “PubChem BioAssay data set” (2004)
#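 Exposure lasted 48 hours, with cells grown in 96-well plates and compounds tested at five concentrations. GI50 marks 50% less growth.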 Calls of active or inactive are those of the source. No stated cut-off is given here; in the data, active = GI50 up to about 1.1 µM and inactive = higher.
# How the values were obtained:
# Assay in all cases: growth of human tumour cells (NCI), 48 h
# [1] = test system: 786-0
# [2] = test system: ACHN
# [3] = test system: CAKI-1
# [4] = test system: COLO 205
# [5] = test system: DMS-114
# [6] = test system: DMS-273
# [7] = test system: EKVX
# [8] = test system: HCC 2998
# [9] = test system: HCT-116
# [10] = test system: HCT-15
# [11] = test system: HOP-62
# [12] = test system: HOP-92
# [13] = test system: HT-29
# [14] = test system: IGROV-1
# [15] = test system: K562
# [16] = test system: KM-20L2
# [17] = test system: KM12
# [18] = test system: LOX IMVI
# [19] = test system: LXFL 529
# [20] = test system: M14
# [21] = test system: M19-MEL
# [22] = test system: MOLT-4
# [23] = test system: Malme-3M
# [24] = test system: NCI-H226
# [25] = test system: NCI-H23
# [26] = test system: NCI-H460
# [27] = test system: NCI-H522
# [28] = test system: OVCAR-3
# [29] = test system: OVCAR-4
# [30] = test system: OVCAR-5
# [31] = test system: OVCAR-8
# [32] = test system: RPMI-8226
# [33] = test system: RXF 393
# [34] = test system: RXF 631
# [35] = test system: SF-268
# [36] = test system: SF-295
# [37] = test system: SF-539
# [38] = test system: SK-MEL-28
# [39] = test system: SK-MEL-2
# [40] = test system: SK-MEL-5
# [41] = test system: SK-OV-3
# [42] = test system: SN12C
# [43] = test system: SNB-19
# [44] = test system: SNB-75
# [45] = test system: SNB-78
# [46] = test system: SW-620
# [47] = test system: TK-10
# [48] = test system: U-251
# [49] = test system: UACC-257
# [50] = test system: UACC-62
# [51] = test system: UO-31
# [52] = test system: A498
# [53] = test system: A549
# [54] = test system: CCRF-CEM
# [55] = test system: DLD-1
# [56] = test system: HL-60
# [57] = test system: HOP-18
# [58] = test system: SR
smiles,measurement,setting,value
CCOC(=O)C(=O)Nc1cc(Cl)c(Cl)cc1Cl,GI50,[1],> 100 µM (inactive)
same,GI50,[2],> 100 µM (inactive)
same,GI50,[3],> 100 µM (inactive)
same,GI50,[4],> 100 µM (inactive)
same,GI50,[5],> 100 µM (inactive)
same,GI50,[6],> 100 µM (inactive)
same,GI50,[7],> 100 µM (inactive)
same,GI50,[8],> 100 µM (inactive)
same,GI50,[9],> 100 µM (inactive)
same,GI50,[10],> 100 µM
same,GI50,[11],> 100 µM (inactive)
same,GI50,[12],> 100 µM (inactive)
same,GI50,[13],> 100 µM (inactive)
same,GI50,[14],> 100 µM (inactive)
same,GI50,[15],> 100 µM (inactive)
same,GI50,[16],> 100 µM (inactive)
same,GI50,[17],> 100 µM (inactive)
same,GI50,[18],> 100 µM (inactive)
same,GI50,[19],> 100 µM (inactive)
same,GI50,[20],> 100 µM (inactive)
same,GI50,[21],> 100 µM (inactive)
same,GI50,[22],> 100 µM (inactive)
same,GI50,[23],> 100 µM (inactive)
same,GI50,[24],> 100 µM (inactive)
same,GI50,[25],> 100 µM (inactive)
same,GI50,[26],> 100 µM (inactive)
same,GI50,[27],> 100 µM (inactive)
same,GI50,[28],> 100 µM (inactive)
same,GI50,[29],> 100 µM (inactive)
same,GI50,[30],> 100 µM (inactive)
same,GI50,[31],> 100 µM (inactive)
same,GI50,[32],> 100 µM (inactive)
same,GI50,[33],> 100 µM (inactive)
same,GI50,[34],> 100 µM (inactive)
same,GI50,[35],> 100 µM (inactive)
same,GI50,[36],> 100 µM (inactive)
same,GI50,[37],> 100 µM (inactive)
same,GI50,[38],> 100 µM (inactive)
same,GI50,[39],> 100 µM (inactive)
same,GI50,[40],> 100 µM (inactive)
same,GI50,[41],> 100 µM (inactive)
same,GI50,[42],> 100 µM (inactive)
same,GI50,[43],> 100 µM (inactive)
same,GI50,[44],> 100 µM (inactive)
same,GI50,[45],> 100 µM (inactive)
same,GI50,[46],> 100 µM (inactive)
same,GI50,[47],> 100 µM (inactive)
same,GI50,[48],> 100 µM (inactive)
same,GI50,[49],> 100 µM (inactive)
same,GI50,[50],> 100 µM (inactive)
same,GI50,[51],> 100 µM (inactive)
CC(=O)C1C(=O)C(=O)N(c2ccccc2N2C(=O)C(=O)C(C(C)=O)C2=O)C1=O (stereo not drawn),GI50,[1],> 100 µM (inactive)
same,GI50,[52],> 100 µM (inactive)
same,GI50,[53],> 100 µM (inactive)
same,GI50,[2],> 100 µM (inactive)
same,GI50,[3],> 100 µM (inactive)
same,GI50,[54],> 100 µM (inactive)
same,GI50,[4],> 100 µM (inactive)
same,GI50,[55],> 100 µM (inactive)
same,GI50,[5],> 100 µM (inactive)
same,GI50,[7],39.9 µM (inactive)
same,GI50,[8],> 100 µM (inactive)
same,GI50,[9],> 100 µM (inactive)
same,GI50,[10],> 100 µM
same,GI50,[56],> 100 µM (inactive)
same,GI50,[57],> 100 µM (inactive)
same,GI50,[11],> 100 µM (inactive)
same,GI50,[12],> 100 µM (inactive)
same,GI50,[13],> 100 µM (inactive)
same,GI50,[14],> 100 µM (inactive)
same,GI50,[15],> 100 µM (inactive)
same,GI50,[16],> 100 µM (inactive)
same,GI50,[17],> 100 µM (inactive)
same,GI50,[18],> 100 µM (inactive)
same,GI50,[19],> 100 µM (inactive)
same,GI50,[20],> 100 µM (inactive)
same,GI50,[21],> 100 µM (inactive)
same,GI50,[22],> 100 µM (inactive)
same,GI50,[23],> 100 µM (inactive)
same,GI50,[24],> 100 µM (inactive)
same,GI50,[25],> 100 µM (inactive)
same,GI50,[26],> 100 µM (inactive)
same,GI50,[27],> 100 µM (inactive)
same,GI50,[28],> 100 µM (inactive)
same,GI50,[29],> 100 µM (inactive)
same,GI50,[30],> 100 µM (inactive)
same,GI50,[31],> 100 µM (inactive)
same,GI50,[32],> 100 µM (inactive)
same,GI50,[33],> 100 µM (inactive)
same,GI50,[34],> 100 µM (inactive)
same,GI50,[35],> 100 µM (inactive)
same,GI50,[36],> 100 µM (inactive)
same,GI50,[37],> 100 µM (inactive)
same,GI50,[38],> 100 µM (inactive)
same,GI50,[39],> 100 µM (inactive)
same,GI50,[40],> 100 µM (inactive)
same,GI50,[41],> 100 µM (inactive)
same,GI50,[42],> 100 µM (inactive)
same,GI50,[43],> 100 µM (inactive)
same,GI50,[44],> 100 µM (inactive)
same,GI50,[45],> 100 µM (inactive)
same,GI50,[58],> 100 µM (inactive)
same,GI50,[46],> 100 µM (inactive)
same,GI50,[47],> 100 µM (inactive)
same,GI50,[48],> 100 µM (inactive)
same,GI50,[49],> 100 µM (inactive)
same,GI50,[50],> 100 µM (inactive)
same,GI50,[51],> 100 µM (inactive)
